Key:
[1] = system: KRAS G12D mutant AGS cells; test: Proliferation inhibition of AGS cells, CellTiter-Glo assay; type: cell-based, human; settings: Homo sapiens, AGS, 72 h, 3 days, CTG; read-out: AGS IC50/nM
In short: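 AGS cells at 1500 cells/well in F12K + 10% FBS were exposed for 3 days at 37°C to nine 3-fold dilutions from 10 µM top concentration, in duplicate. Viability read by CellTiter-Glo luminescence; IC50 (nM) from dose-response-inhibition fitting.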

Pharmacokinetics in mice = settings: mouse, in vivo, po, 20 mg/kg
Procedure: Male CD-1 mice, aged 6-8 weeks, were purchased from Zhejiang Vital River Laboratory Animal Co., Ltd.
For the PO administration group, compounds were formulated in 0.5% Tween 80 and 99.5% (0.5%MC (400cp)) vehicle or 0.5%MC (400cp) vehicle to a final concentration of 1 mg/mL or 2 mg/mL for each compound. The drug formulation was administered to CD-1 mice via gavage at a dose of 10 mL/kg. Blood samples were collected from the submandibular vein or other suitable means at 15 min, 30 min, 1 h, 2 h, 4 h, 6 h, 8 h, and 24 h after administration. The blood samples were centrifuged at low temperature for 5 minutes, and the plasma was collected and stored at -80°C for analysis.
10 µL of plasma sample was taken, 200 µL of methanol containing an internal standard as a precipitant was added to precipitate plasma proteins, the compounds to be tested in the plasma was extracted, centrifuged at low temperature, and 10 µL of the supernatant was injected. The drug concentration in blood plasma was analyzed by LC-MS/MS. The pharmacokinetic parameters were calculated using Winnonlin based on the blood drug concentration data at different time points.

[2] = system: KRAS G12V mutant NCI-H727 cells; test: Proliferation inhibition of NCI-H727 cells, 3D CellTiter-Glo assay (Method B); type: cell-based, human; settings: Homo sapiens, NCI-H727, 120 h, Method B; 3D culture with 0.65% methylcellulose, 5 days, CTG; read-out: NCI-H727 IC50/nM
In short: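 Cells grown in 3D medium (RPMI-1640, 10% FBS, 0.65% methylcellulose) overnight, then treated 5 days at 37 °C, 5% CO2 with 9 threefold dilutions from 10 µM top working concentration, duplicate wells. CellTiter-Glo luminescence read; IC50 (nM) fitted by dose-response-inhibition equation.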

- IC50 [1]: < 1.5 nM
- AUC(0-t) at 8 h (Pharmacokinetics in mice): 4130 ng·h/mL
- IC50 [2]: < 1.5 nM
SMILES: CCN1CC/C(=C\F)[C@](C)(COc2nc(N3Cc4c(COC)c(C(=O)N(C)C)nn4CC[C@@H]3C)c3cc(Cl)c(-c4c(F)ccc5sc(N)c(C#N)c45)c(F)c3n2)C1 (single isomer, unassigned) [Example 228A]

From patent publication EP4775577A1, “RAS INHIBITOR” (Tyligand Bioscience (Shanghai) Limited, priority 2023, dated 2025)
